# Source: patent US10149887B2, “Peptides and peptidomimetics in combination with t cell activating and/or checkpoint inhibiting agents for cancer treatment” (CanBas Co., Ltd., priority 2015, dated 2018)
# Square brackets hold non-standard residues; d marks the D form. Peptide text beside a SMILES is read from it. dPhe(F5) = N[C@H](Cc1c(F)c(F)c(F)c(F)c1F)C(=O)O; dBpa = N[C@H](Cc1ccc(C(=O)c2ccccc2)cc1)C(=O)O; dCha = N[C@H](CC1CCCCC1)C(=O)O
# Key:
# [1] = system: thrombin/antithrombin complex; assay: Thrombin/antithrombin complex in plasma of LPS treated mice (ELISA); type: in vivo, mouse; conditions: C57BL/6 mice, CBP501 7.5 mg/kg, plasma 3 hours after
# Description: The data were obtained in each condition out of four animals.
# [2] = system: HMGB1; assay: HMGB1 secretion from CT26WT cells (ELISA); type: cell-based, murine; conditions: 20 μM CDDP with 0.5 μM CBP501, 45 min
# Procedure: Secreted HMGB1 into the medium was collected at 24, 48 and 72 hours after treatment (n=3). Quantification of the secreted HMGB1 was conducted by HMGB1 ELISA kit II. Samples were compared by student's t-test. *P<0.05 **P<0.01, compared with untreated control cells, and ^†P<0.05, ^††P<0.01, compared with the corresponding CDDP alone.
# After changing with fresh drug-free medium, cells were incubated for 24, 48, or 72 hours for Immunoblotting analysis of phospho-eIF2-alpha, for calreticulin analysis by FACS, or for HMGB1 ELISA.
# The secreted HMGB1 to the medium was quantificated by HMGB1 ELISA kit II (SINO-TEST CORPORATION, kanagawa, Japan) according to manufacturer's instructions.
# [3] = system: CT26WT cells; conditions: 3 hours treatment, two days later
# Procedure: Two days later, the cell cycle phase distribution (Y-axis) and cell death was analyzed by BD FACSCalibur by propidium iodide staining.
# For cell cycle analysis, cells collected by trypsine/EDTA (Gibco) were stained with Krishan's buffer (0.1% sodium citrate, 50 Ag/mL propidium iodide, 20 Ag/mL RNase A, 0.5% NP40) followed by flow cytometry using FACSCalibur (Becton Dickinson).
# [4] = system: CBP501-sensitive human cancer cell lines; assay: Intracellular accumulation of CDDP; type: cell-based
# [5] = In vivo half life in mouse serum (HPLC); conditions: 40 mg/kg ip, read-out: Half-life after 40 mg/kg intra-peritoneal injection (converted)
# [6] = Human serum treatment analysis (residual G2 checkpoint abrogating activity); type: in vitro ADME; conditions: 37 degrees
# Procedure: Serum analysis was performed to determine the stability of peptides in mouse and human serum. Briefly, peptides (10 mM or 2.5 mM) were incubated with freshly prepared human serum at 37 degrees for 1 hr. […] Jurkat cells were treated with the serum with or without peptides and bleomycin (40 μg/ml) and incubated for 24 hr. The population of G2 phase cells was determined by flow cytometry as previously described. The residual G2 checkpoint abrogating activity of serum treated peptides were determined by comparing the % G2 cells of the treated serum and the standard curve produced with medium treated peptides, bleomycin and Jurkat cells (Table 5A).
# [7] = system: HUVEC; assay: Growth of normal human umbilical endothelial cells (HUVEC); type: cell-based; conditions: peptide by itself
# Procedure: Similar studies were performed using normal human umbilical endothelial cells (HUVEC).
# [8] = system: CT26WT; assay: Analysis of tumor infiltrating lymphocytes in CT26WT tumors (flow cytometry); type: in vivo, mouse; conditions: day 11
# Procedure: CT26WT were subcutaneously inoculated into the left flank of female Balb/c mice. […] Then, tumors were extracted from mice on day 11, and digested with triple enzyme mix (collagenase, hyaluronidase and DNase) to obtain single cell suspension. The cells were treated with FcR blocker and stained with specific antibody for multi-color flow cytometry analysis including CD4, CD8, CD45, CD11b, Ly6G, Ly6C, F4/80, MHC class II and CD206. Quantitative data (FIG. 32) are shown as mean values with SEM (n=3-4 mice/group). *: p<0.05, **: p<0.01, n.s.: not significant (unpaired, 2-tailed student's t-test), as compaired with cells from vehicle-treated or PD-1-treated tumor.
smiles,measurement,setting,value
"N=C(N)NCCC[C@@H](NC(=O)[C@@H](CCCNC(=N)N)NC(=O)[C@@H](CCC(N)=O)NC(=O)[C@@H](CCCNC(=N)N)NC(=O)[C@@H](CCCNC(=N)N)NC(=O)[C@@H](CCCNC(=N)N)NC(=O)[C@@H](CC1CCCCC1)NC(=O)[C@@H](Cc1c(F)c(F)c(F)c(F)c1F)NC(=O)[C@@H](CO)NC(=O)[C@@H](Cc1c[nH]c2ccccc12)NC(=O)[C@@H](CO)NC(=O)[C@H](N)Cc1ccc(C(=O)c2ccccc2)cc1)C(=O)O [CBP501, (d-Bpa)(d-Ser)(d-Trp)(d-Ser)(d-Phe-2,3,4,5,6-F)(d-Cha)(d-Arg)(d-Arg)(d-Arg)(d-Gln)(d-Arg)(d-Arg)] (H-[dBpa][dS][dW][dS][dPhe(F5)][dCha][dR][dR][dR][dQ][dR][dR]-OH; N-terminus and C-terminus assumed)",Thrombin/anti-thrombin complexes in vivo,[1],increased thrombin/anti-thrombin complexes
same,"HMGB1 release, CDDP combined with CBP501 vs CDDP alone",[2],about 2 times
same,"Potency in changing cell cycle phase distribution, CDDP combined with CBP501 vs CDDP alone",[3],about 2 times
same,"Intracellular accumulation of CDDP, CDDP combined with CBP501 vs CDDP alone",[4],1.5 to 3 times
same,half-life,[5],3 h
same,Residual activity of peptide after 1 hr human serum treatment,[6],>50% of original
same,Growth of normal cells (HUVEC),[7],does not affect the growth of HUVEC cells
same,"CD8 (=CD45+CD8+) infiltration at tumor site, combined with CDDP and anti-PD1 antibody",[8]; CDDP 4 mg/kg + CBP501 6 mg/kg + anti-PD1 400 ug/mouse,statistically significant
same,"CD8 (=CD45+CD8+) infiltration at tumor site, combined with CDDP",[8]; CDDP 4 mg/kg i.v. + CBP501 6 mg/kg i.v.,tended to increase
same,M2 macrophages (=F4/80+CD206+) in tumor,[8]; combined with CDDP or CDDP plus anti-PD1 antibody,decreased M2 macrophages
